Reference: US10988523B2, “Modified lipidated Relaxin B chain peptides and their therapeutic use” (Sanofi, priority 2018, dated 2021)
Like-named read-outs stand apart in the source and are kept apart here. *1 amine or outer side, *2 acyl side, *3 side chain or, on linkers, in order; H or OH if unused. Where a SMILES comes first, the peptide text is derived from it. Side-chain parts run from the residue outwards. [ ]: non-standard residue; d: D form. The star is where a group is joined. X18 = CCCCCCCCCCCCCCCC(=O)N[C@@H](CCC(=O)N[C@@H](CCC(=O)N[C@@H](CCC(=O)NCCCC[C@H](NC(=O)CCC(=O)NCCCOCCOCCOCCCNC(=O)CCC(=O)NCCCOCCOCCOCCCNC(=O)CCC(=O)NCCCOCCOCCOCCCN*)C(N)=O)C(=O)O)C(=O)O)C(=O)O; PEG12 = NCCOCCOCCOCCOCCOCCOCCOCCOCCOCCOCCOCCOCCC(=O)O; γGlu = O=C(O)[C@H](CCC(=O)[*:2])N[*:1]; 1Nal = N[C@@H](Cc1cccc2ccccc12)C(=O)O; Pentadecanoyl = CCCCCCCCCCCCCCC(=O)*; Stearoyl = CCCCCCCCCCCCCCCCCC(=O)*; αMeK = C[C@](N)(CCCCN)C(=O)O; Nle = CCCC[C@H](N)C(=O)O; AEEA = NCCOCCOCC(=O)O; Aib = CC(C)(N)C(=O)O

Columns and labels:
[1] = Pharmacokinetic (PK) determination after i.v. or s.c. administration to rats; format: in vivo, Sprague Dawley rats; settings: Rat PK
Procedure: Prior to the testing of a peptide batch, its purity (HPLC-UV) was determined. Dose was corrected for presence of salts, solvent and purity.
Sprague Dawley rats were dosed with study peptide at a dose of 1 mg/kg intravenously (i.v.) or 3 mg/kg subcutaneously (s.c.) as a solution in PBS (0.2 mg/ml and 0.6 mg/ml respectively).
Plasma samples were analyzed after protein precipitation via liquid chromatography mass spectrometry (LC/MS).
PK parameters and half-life were calculated using Phoenix 64 (WinNonlin 6.4)-Pharsight (Certara™) (non-compartment model). Values below the limit of quantification (BLQ) were replaced by zero for subsequent calculations and PK analysis.
T½: in-vivo half life, time required for test compound plasma concentration to be divided by two during the PK experiment.
C0: Extrapolated test compound plasma concentration at t=0 time point (i.v. route).
Cmax: maximal test compound plasma concentration at the indicated time point (s.c. route).
Tmax: Time point where Cmax is attained.
F %: s.c. vs i.v. bioavailability, dose-corrected area under curve (AUC) s.c. route divided by AUC i.v.

RXFP1 = biological target: T1, RXFP1 (Homo sapiens, UniProt Q9HBX9); experiment: OVCAR5 cAMP assay (HTRF), RXFP1 agonist activity; format: cell-based; settings: for Emax: OVCAR-5, maximal cAMP relative to H2-relaxin maximum (100%), read-out: EMax, OVCAR 5 cells (cAMP)
T1 construct: OVCAR5 cells expressing endogenous RXFP1; endogenous in cells; host or cells: OVCAR5 cells
T1 sequence (Q9HBX9 1-757): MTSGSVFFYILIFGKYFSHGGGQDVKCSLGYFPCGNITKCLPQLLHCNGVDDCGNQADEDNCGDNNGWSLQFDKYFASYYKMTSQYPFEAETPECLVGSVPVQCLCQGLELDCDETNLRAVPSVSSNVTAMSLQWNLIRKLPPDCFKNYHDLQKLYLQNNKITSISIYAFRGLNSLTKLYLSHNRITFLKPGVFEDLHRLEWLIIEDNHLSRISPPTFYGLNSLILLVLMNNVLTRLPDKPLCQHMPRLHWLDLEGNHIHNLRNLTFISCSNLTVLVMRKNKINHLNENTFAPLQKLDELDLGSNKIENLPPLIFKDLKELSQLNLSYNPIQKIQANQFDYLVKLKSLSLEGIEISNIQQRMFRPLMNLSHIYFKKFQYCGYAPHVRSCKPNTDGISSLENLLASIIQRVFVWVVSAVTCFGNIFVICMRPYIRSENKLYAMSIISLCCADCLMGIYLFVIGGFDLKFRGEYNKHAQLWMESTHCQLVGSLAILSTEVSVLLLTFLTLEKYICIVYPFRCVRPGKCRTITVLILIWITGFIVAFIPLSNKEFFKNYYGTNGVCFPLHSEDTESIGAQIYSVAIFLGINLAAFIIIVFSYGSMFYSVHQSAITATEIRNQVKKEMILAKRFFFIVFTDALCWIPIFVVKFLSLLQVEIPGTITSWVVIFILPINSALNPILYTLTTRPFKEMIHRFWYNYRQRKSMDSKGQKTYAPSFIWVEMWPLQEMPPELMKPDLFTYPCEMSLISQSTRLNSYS
Procedure, shortened: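 OVCAR5 cells (endogenous RXFP1) pretreated 40 min at 37° C with 1 mM IBMX, then exposed to peptides in serum-free medium for 30 min at 37° C. Lysate cAMP read by HTRF; EC50 from variable-slope sigmoidal fit; Emax as % of H2-relaxin maximal cAMP in same run.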

[2] = Sprague Dawley, plasma, sc, 3 mg/kg s.c.

Compound: H2-Relaxin: 6-kDa peptidic hormone of 53 amino acids; chain A (SEQ ID NO: 194) and chain B (SEQ ID NO: 195) cross-linked by disulfide bonds
- T½ (in-vivo half life) ([1]; 1 mg/kg i.v.): 0.46 h
- C0 ([1]; 1 mg/kg i.v., read-out: C0 (extrapolated plasma concentration at t=0)): 870 nM

Compound: CCCCCCCCCCCCCCCCCC(=O)N[C@@H](CCC(=O)N[C@@H](CCC(=O)N[C@@H](CCC(=O)NCCCC[C@H](NC(=O)CCOCCOCCOCCOCCOCCOCCOCCOCCOCCOCCOCCOCCNC(=O)[C@H](CCCCNC(C)=O)NC(=O)[C@H](CCCCN)NC(=O)[C@H](CCCNC(=N)N)NC(=O)C(C)(C)NC(=O)[C@H](CO)NC(=O)[C@H](Cc1cccc2ccccc12)NC(=O)[C@@H](NC(=O)[C@H](CO)NC(=O)[C@H](CCCC)NC(=O)CNC(=O)[C@H](CCC(=O)O)NC(=O)C(C)(C)NC(=O)C(C)(C)NC(=O)[C@@H](NC(=O)[C@H](CCCCNC(C)=O)NC(=O)C(C)(C)NC(=O)[C@H](CCCNC(=N)N)NC(=O)[C@@H](NC(=O)[C@H](CCCCN)NC(=O)[C@H](CCC(=O)O)NC(=O)[C@H](CCCNC(=N)N)NC(=O)CNC(=O)[C@H](CCC(=O)O)NC(=O)[C@H](CC(C)C)NC(C)=O)C(C)C)[C@@H](C)CC)[C@@H](C)O)C(N)=O)C(=O)O)C(=O)O)C(=O)O [compound 37] (Ac-LEGREKVR[Aib]K(Ac)I[Aib][Aib]EG[Nle]ST[1Nal]S[Aib]RKK(Ac)[PEG12]K([γGlu-γGlu-γGlu-Stearoyl])-NH2)
- Emax (RXFP1): 83%
- C0 ([1]; Sprague Dawley, iv, 1 mg/kg i.v., extrapolated plasma concentration at t=0, read-out: C0): 5560 nM
- half-life ([1]; Sprague Dawley, plasma, iv, 1 mg/kg i.v., read-out: T½ (converted)): 2.55 h
- Cmax [1, 2]: 1710 nM
- Tmax [1, 2]: 6 h
- bioavailability ([1]; Sprague Dawley, plasma, subcutaneous, 3 mg/kg s.c. vs 1 mg/kg i.v., dose-corrected AUC ratio): 40%

Compound: CCCCCCCCCCCCCCC(=O)N[C@@H](CCC(=O)N[C@@H](CCC(=O)NCCCC[C@H](NC(=O)CC[C@H](NC(=O)CC[C@H](NC(=O)COCCOCCNC(=O)COCCOCCNC(=O)COCCOCCNC(=O)COCCOCCNC(=O)[C@H](CCCCNC(C)=O)NC(=O)[C@H](C)NC(=O)[C@H](CCCNC(=N)N)NC(=O)[C@](C)(CCCCN)NC(=O)[C@H](CO)NC(=O)[C@H](Cc1ccccc1)NC(=O)[C@@H](NC(=O)[C@H](CO)NC(=O)[C@H](CCCC)NC(=O)CNC(=O)[C@H](CCC(=O)O)NC(=O)C(C)(C)NC(=O)C(C)(C)NC(=O)[C@@H](NC(=O)[C@H](CCCCNC(C)=O)NC(=O)[C@H](C)NC(=O)[C@H](CCCNC(=N)N)NC(=O)[C@@H](NC(=O)[C@H](CCCCN)NC(=O)[C@H](CCC(=O)O)NC(=O)[C@H](CCCNC(=N)N)NC(=O)CNC(=O)[C@H](CCC(=O)O)NC(=O)[C@H](CC(C)C)NC(C)=O)C(C)C)[C@@H](C)CC)[C@@H](C)O)C(=O)O)C(=O)O)C(N)=O)C(=O)O)C(=O)O [compound 168] (Ac-LEGREKVRAK(Ac)I[Aib][Aib]EG[Nle]STFS[αMeK]RAK(Ac)[AEEA][AEEA][AEEA][AEEA][γGlu][γGlu]K([γGlu-γGlu-Pentadecanoyl])-NH2)
- EC50 (RXFP1; OVCAR5 cells, cAMP HTRF, read-out: EC50 (nM), OVCAR 5 cells (cAMP)): 0.06 nM
- Emax (RXFP1): 91%

Compound: CCCCCCCCCCCCCCCC(=O)N[C@@H](CCC(=O)N[C@@H](CCC(=O)N[C@@H](CCC(=O)NCCCC[C@H](NC(=O)CCC(=O)NCCCOCCOCCOCCCNC(=O)CCC(=O)NCCCOCCOCCOCCCNC(=O)CCC(=O)NCCCOCCOCCOCCCNC(=O)[C@H](CCCCNC(C)=O)NC(=O)[C@H](C)NC(=O)[C@H](CCCNC(=N)N)NC(=O)[C@](C)(CCCCN)NC(=O)[C@H](CO)NC(=O)[C@H](Cc1ccccc1)NC(=O)[C@@H](NC(=O)[C@H](CO)NC(=O)[C@H](CCCC)NC(=O)CNC(=O)[C@H](CCC(=O)O)NC(=O)C(C)(C)NC(=O)C(C)(C)NC(=O)[C@@H](NC(=O)[C@H](CCCCNC(C)=O)NC(=O)[C@H](C)NC(=O)[C@H](CCCNC(=N)N)NC(=O)[C@@H](NC(=O)[C@H](CCCCN)NC(=O)[C@H](CCC(=O)O)NC(=O)[C@H](CCCNC(=N)N)NC(=O)CNC(=O)[C@H](CCC(=O)O)NC(=O)[C@H](CC(C)C)NC(C)=O)C(C)C)[C@@H](C)CC)[C@@H](C)O)C(N)=O)C(=O)O)C(=O)O)C(=O)O [compound 187] (Ac-LEGREKVRAK(Ac)I[Aib][Aib]EG[Nle]STFS[αMeK]RAK(Ac)-X18)
- Emax (RXFP1): 100%

Compound: CCCCCCCCCCCCCCCCCC(=O)N[C@@H](CCC(=O)NCCOCCOCC(=O)NCCOCCOCC(=O)NCCCC[C@H](NC(=O)[C@H](CCCCN)NC(=O)[C@H](CCCNC(=N)N)NC(=O)C(C)(C)NC(=O)[C@H](CO)NC(=O)[C@H](Cc1c[nH]c2ccccc12)NC(=O)[C@@H](NC(=O)[C@H](CO)NC(=O)[C@H](CCCC)NC(=O)CNC(=O)[C@H](CCC(=O)O)NC(=O)C(C)(C)NC(=O)C(C)(C)NC(=O)[C@@H](NC(=O)[C@H](CCC(N)=O)NC(=O)[C@H](C)NC(=O)[C@H](CCCNC(=N)N)NC(=O)[C@@H](NC(=O)[C@H](CCCCN)NC(=O)[C@H](CCC(=O)O)NC(=O)[C@H](CCCNC(=N)N)NC(=O)CNC(=O)[C@H](CCC(=O)O)NC(=O)[C@H](CC(C)C)NC(C)=O)C(C)C)[C@@H](C)CC)[C@@H](C)O)C(N)=O)C(=O)O [compound 56] (Ac-LEGREKVRAQI[Aib][Aib]EG[Nle]STWS[Aib]RKK([AEEA-AEEA-γGlu-Stearoyl])-NH2)
- Emax (RXFP1): 95%

Compound: CCCCCCCCCCCCCCCCCC(=O)NCCOCCOCC(=O)NCCOCCOCC(=O)NCCOCCOCC(=O)NCCCC[C@H](NC(=O)[C@H](CCCCNC(C)=O)NC(=O)[C@H](CCCCN)NC(=O)[C@H](CCCNC(=N)N)NC(=O)C(C)(C)NC(=O)[C@H](CO)NC(=O)[C@H](Cc1c[nH]c2ccccc12)NC(=O)[C@@H](NC(=O)[C@H](CO)NC(=O)[C@H](CCCC)NC(=O)CNC(=O)[C@H](CCC(=O)O)NC(=O)C(C)(C)NC(=O)C(C)(C)NC(=O)[C@@H](NC(=O)[C@H](CCC(N)=O)NC(=O)[C@H](C)NC(=O)[C@H](CCCNC(=N)N)NC(=O)[C@@H](NC(=O)[C@H](CCCCN)NC(=O)[C@H](CCC(=O)O)NC(=O)[C@H](CCCNC(=N)N)NC(=O)CNC(=O)[C@H](CCC(=O)O)NC(=O)[C@H](CC(C)C)NC(C)=O)C(C)C)[C@@H](C)CC)[C@@H](C)O)C(N)=O [compound 52] (Ac-LEGREKVRAQI[Aib][Aib]EG[Nle]STWS[Aib]RKK(Ac)K([AEEA-AEEA-AEEA-Stearoyl])-NH2)
- Emax (RXFP1): 98%

Compound: CCCCCCCCCCCCCCCCCC(=O)N[C@@H](CCC(=O)N[C@@H](CCC(=O)N[C@@H](CCC(=O)NCCCC[C@H](NC(=O)CCOCCOCCOCCOCCOCCOCCOCCOCCOCCOCCOCCOCCNC(=O)[C@H](CCCCN)NC(=O)[C@H](CCCNC(=N)N)NC(=O)C(C)(C)NC(=O)[C@H](CO)NC(=O)[C@H](Cc1c[nH]c2ccccc12)NC(=O)[C@@H](NC(=O)[C@H](CO)NC(=O)[C@H](CCCC)NC(=O)CNC(=O)[C@H](CCC(=O)O)NC(=O)C(C)(C)NC(=O)C(C)(C)NC(=O)[C@@H](NC(=O)[C@H](CCCCNC(C)=O)NC(=O)[C@H](C)NC(=O)[C@H](CCCNC(=N)N)NC(=O)[C@@H](NC(=O)[C@H](CCCCN)NC(=O)[C@H](CCC(=O)O)NC(=O)[C@H](CCCNC(=N)N)NC(=O)CNC(=O)[C@H](CCC(=O)O)NC(=O)[C@H](CC(C)C)NC(C)=O)C(C)C)[C@@H](C)CC)[C@@H](C)O)C(N)=O)C(=O)O)C(=O)O)C(=O)O [compound 34] (Ac-LEGREKVRAK(Ac)I[Aib][Aib]EG[Nle]STWS[Aib]RK[PEG12]K([γGlu-γGlu-γGlu-Stearoyl])-NH2)
- Emax (RXFP1): 95%
